Measurements from PMC11429909, “Protein Structure Inspired Discovery of a Novel Inducer of Anoikis in Human Melanoma” (Cancers, 2024).
Entries after “also recorded” stand apart in the source; their conditions may differ.

How the values were obtained:
cleaved caspase 3 = assay: Western blot for cleaved caspase 3, M14; assay type: cell-based, human; details: up to 10 µM, three days
Description: After treatment of M14 and SK-MEL-5 cells with different concentrations of Dxr2-017 or vehicle for 3 or 8 days, as denoted, cell images were captured at 20X in a transmitted light channel using the EVOS™ M5000 Imaging System (Invitrogen (Waltham, MA, USA)). Western blots were performed as previously described by us. Briefly, cells were collected and lysed using RIPA lysis buffer (25 mM Tris-HCl pH 7.6, 150 mM NaCl, 1% NP-40, 1% sodium deoxycholate, and 0.1% SDS; Thermo Scientific^TM (Waltham, MA, USA), #89900), supplemented with protease and phosphatase inhibitor cocktail (Thermo Scientific^TM, #78442) and 1 mM of PMSF. Resultant Western blots were probed using antibodies against cleaved caspase 3 (Cell Signaling Technology (Danvers, MA, USA), #9664), pan-cadherin (Cell Signaling Technology, #4068), and β-actin (Santa Cruz (Santa Cruz, CA, USA), #sc-47778).
We then assessed whether Dxr2-017 induced apoptosis. We treated M14 and SK-MEL-5 cells with Dxr2-017 for three days at concentrations of up 10 and 20 µM, respectively, and measured cleaved caspase 3 using Western blot. […] In this assay, cells were grown in six-well plates and washed prior to lysis, and thus only adherent cells remained. […] Adherent cells are spread out and fusiform shaped, while detached/floating cells are round, as previously reported by us. […]

[1] = system: breast, prostate, colon, or lung cancer cell lines; assay: Eight-day colony formation assays, summary across the cancer cell line panel; assay type: cell-based, human; details: 8 days
Description: Initial colony formation screening assays were conducted on all acquired compounds and examined at five different compound concentrations. Those meeting efficacy criteria underwent a second-level screen examining nine different compound concentrations. Eight-day colony formation assays of cancer cells were performed as described by us. Briefly, 0.5–1.0 × 10^3 cells were seeded into each well of a 12-well plate. Twenty-four hours later, the compound was added at the following final concentrations: 0 (DMSO-only control), 0.017, 0.12, 0.82, 5.7, and 40 µM. For each concentration, there were N = 2 replicates, i.e., 2 wells. Eight days later, plates were stained with trypan blue, visualized under light microscopy, and groups of three or more cells were scored as colonies. The mean number of colonies was then determined and expressed as the percentage of controls. Second-level screens were performed on compounds inhibiting colony formation by greater than 50% at 40 µM in at least two cell lines. Second-level assays used the following final concentrations of compound: 0 (DMSO only), 0.0061, 0.018, 0.05, 0.16, 0.49, 1.48, 4.44, 13.33, and 40 µM. All compounds were stored under desiccated conditions in a sealed container at minus 20 °C upon arrival. One day prior to use, they were dissolved in DMSO, stored at minus 20 °C as stock solutions, thawed just prior to use, and not reused.
Human hematopoietic stem cell trilineage colony formation assays were performed as previously described by us. Briefly, human cord blood CD34+ cells (catalog #: 70008.5) were purchased from StemCell Technology Inc. and seeded at 1 × 10^4 cells per 35 mm dish. Cells were cultured in MethoCult™ Express (StemCell Technologies, Inc. (Vancouver, BC, Canada)) semisolid media, per the manufacturer’s instructions, in the presence of compound or vehicle (for controls). Compounds were added at final concentrations matching those used in the initial growth assay screens. At eight days, colonies (i.e., groups of ≥10 cells) were counted. At fourteen days, individual colonies of erythroid burst-forming units (BFU-E), colony-forming unit granulocyte–macrophage (CFU-GM), and colony-forming unit granulocyte, erythrocyte, monocyte, and megakaryocyte (CFU-GEMM) were identified based on the manufacturers’ morphologic characterization criteria. Assays were run in replicates of N = 2, and some were run in replicates of N = 4, as denoted. The mean number of colonies was then determined and expressed as the percentage of controls. The effect of each compound on inhibiting the growth of cancer cells relative to its toxic effects on normal bone marrow was evaluated. This was carried out by comparing colonies at 8 days for each cancer cell line to that of bone marrow. This information was used to calculate the efficacy ratio, as follows: efficacy ratio = (percent of remaining cancer cell colonies)/(percent of remaining bone marrow colonies). This was performed for all compounds at 40 µM and for selected compounds at 5.7 µM, as denoted. For compounds nominated for second-level screens, bone marrow colony formation assays were also repeated. Compounds were added at final concentrations matching those used in the initial screens.
We sought to identify compounds that would inhibit the growth of cancer cells, but that also did so selectively. Inhibition of cancer cell growth is a highly sought after attribute of anticancer agents. This was assessed by measuring the ability of a compound to inhibit cell growth in eight-day colony formation assays and examining concentrations ranging from 0.017 to 40 µM. Breast, colon, lung, and prostate cancer are four of the most common types of cancer in the United States, are major causes of cancer cell death, and were examined. […]

## c1ccc2sc(-c3ccc(CNc4ccc5nnnn5n4)o3)nc2c1 [Dxr2-017]
Cleaved caspase 3
  cleaved caspase 3, adherent and floating cells combined: clear formation was observed
  cleaved caspase 3, adherent cells only: did not see any induction of cleaved caspase 3; also recorded: no formation of cleaved caspase 3
[1]; 5.7 µM
  efficacy ratio, mean ± SEM over cell lines with ratio below 0.5: 0.25 ± 0.091
[1]; 40 µM
  efficacy ratio, mean ± SEM over cell lines with ratio below 0.5: 0.03 ± 0.01
